Measured values taken from US20260166159A1, “KRAS G12D DEGRADATION AGENT, AND PREPARATION METHOD AND USE THEREFOR” (LEADINGTAC PHARMACEUTICAL (SHAOXING) CO., LTD., priority 2022, published 2026).

Key:
Type in all cases: cell-based
[1] = molecular target: T1, KRAS-G12D (Homo sapiens, UniProt P01116, G12D); test: KRAS-G12D degradation assay (Western Blot), A-427 cells; conditions: A427 cells, 24 h; for Dmax: A-427
T1 construct: endogenous in cells; host or cells: A-427 (ATCC), AGS, AsPc-1, Panc 04.03
T1 sequence (P01116 1-188 isoform P01116-2 G12D): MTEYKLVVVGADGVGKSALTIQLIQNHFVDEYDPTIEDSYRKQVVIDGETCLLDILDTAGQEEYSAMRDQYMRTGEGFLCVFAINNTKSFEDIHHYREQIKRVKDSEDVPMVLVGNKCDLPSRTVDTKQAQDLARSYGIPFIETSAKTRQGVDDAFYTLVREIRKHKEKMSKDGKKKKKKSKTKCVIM
Method: (§1) The degradation effects of the compounds on KRAS-G12D were investigated on KRAS G12D mutant human lung cancer cell A-427 (ATCC), KRAS G12D mutant human gastric cancer cell AGS, KRAS G12D mutant human metastatic pancreatic cancer cell AsPc-1, and KRAS G12D mutant human pancreatic adenocarcinoma cell Panc 04.03. The specific procedures were as follows: 0.95 mL of cells were seeded into each well of a 24-well cell culture plate to achieve a cell density of 5×10^5 cells/well; and the cell plate was incubated in an incubator at 37° C. with 5% CO2 overnight. Then 50 μL of the compound solution after dilution was added to each of the wells with the corresponding cells, so that the final concentration of the compound was in a range of 0.03-3000 nM. The final concentration of DMSO was 0.25%. After the compounds were added, the cell plate was incubated in the incubator at 37° C. with 5% CO2 for 24 h. The culture medium in the 24-well cell culture plate was removed, and the plate was washed twice with 1×PBS (KeyGEN). 120 μL of RIPA (strong) lysis buffer (Beyotime) supplemented with 1 mM phenylmethylsulfonyl fluoride, a protease inhibitor mixture (Beyotime), and a protease phosphatase inhibitor mixture (Beyotime) was added to lyse adherent A-427 cells at the bottom of the cell culture plate. After the plate was left to stand on ice for 30 min, the protein lysate in each well was transferred to a 1.5 mL centrifuge tube and centrifuged at 15000 g for 20 min at 4° C. The cell lysate supernatants after centrifugation were cryopreserved in a refrigerator at −80° C. for later use.
(§2) After the samples of the cell lysate supernatants that had been prepared were thawed from the refrigerator at −80° C., the total protein concentrations of the cell lysates were determined using a BCA protein quantification kit (Tiangen). The total protein concentrations of the samples were then adjusted to 0.5 μg/μL with PBS and 5×SDS-PAGE protein loading buffer (Beyotime), and the samples were incubated in a water bath at 100° C. for 15 min. The samples were then incubated in an ice bath for 5 min and centrifuged at 14000 g for 1 min at 4° C., and the supernatants were mixed well as loading samples for the Western Blot assay. The samples were loaded into wells of a 10% precast gel (KeyGEN) with a loading volume of 10 μL (total protein: 5 μg), a sufficient Tris-MOPS-SDS running buffer (Adamas) was added, and then electrophoresis was performed at a constant voltage of 120 V for 55 min. After the electrophoresis, the proteins on the gel were transferred to PVDF membranes at a constant current of 250 mA for 55 min. After the membrane transfer, the PVDF membranes were incubated in 1× Quick Block blocking buffer (Beyotime) at room temperature for 30 min. After the blocking, the PVDF membranes were separately incubated at 4° C. overnight with the KRAS antibody (Abcam) diluted in a ratio of 1:1000 and the […] antibody (Abcam) diluted in a ratio of 1:2000 in 5% BSA as the diluent, and then washed with 1×TBST buffer (2.4 g of Tris, 8.8 g of NaCl, 1.5 mL of Tween 20, with pH adjusted to 7.4, with the volume brought to 1 L) 3 times for 10 min/time. The membranes were incubated with a secondary antibody (Abcam) diluted in 5% BSA at room temperature for 2 h, and then washed with 1×TBST buffer 3 times for 10 min/time. Finally, the membranes were incubated with Clarity Western ECL Substrate (BIO-RAD) for 5 min for luminescence and color development, and a ChemiScope 6200 Touch chemiluminescence imaging system (Clinx) was used for color development and protein mapping. Gray value analysis of the protein maps was performed using the chemiluminescence analysis software (Clinx). The gray correction value for each sample was calculated using the formula: gray correction value=(gray value of target protein/gray value of corresponding internal reference)×10^3. Then degradation rates were calculated by comparison with the gray correction value of the control group. […]

[2] = system: KRAS G12D mutant human gastric cancer cell AGS; test: 3D cell proliferation inhibition assay, AGS; conditions: 168 h, 7 days, CTG
Excerpt: (§3) The inhibitory effects of the compounds on 3D cell proliferation were investigated on KRAS G12D mutant human lung cancer cell A427, KRAS G12D mutant human gastric cancer cell AGS, KRAS G12D mutant human metastatic pancreatic cancer cell AsPc-1, KRAS G12D mutant human pancreatic cancer cell Panc 04.03, KRAS G12D mutant human pancreatic cancer cell HPAC, KRAS G12V mutant human lung squamous cell carcinoma cell SW900, and KRAS WT human gastric cancer cell MKN1. The specific procedures were as follows:
(§4) 10 μL of each compound solution diluted in a gradient was added to corresponding wells of a 96-well low-adsorption microplate (PerkinElmer), so that the final concentrations of the test compounds in the reaction system were in a range of 10000-0.026 nM. The final concentration of DMSO was 0.2%. Then 90 µL of cells were correspondingly seeded into each well to achieve a cell density of 5×10^2 cells/well (the cell density of SW900 was 5×10^1 cells/well, and the cell density of MKN1 was 1×10^3 cells/well). In addition to test wells for the test compounds, both a DMSO control well and a medium control well were set, with the DMSO control well containing DMSO and cells and the medium well containing only a medium. After the sample loading, the 96-well low-adsorption microplate was incubated in an incubator at 37° C. with 5% carbon dioxide for 7 days. After 7 days, the microplate was taken out, and 100 μL of CTG reagent (Promega) was added to each well. The plate was incubated at room temperature for 60 min and read on a microplate reader EnVision by the chemiluminescence program. The inhibition rates of the compounds at each concentration were calculated using the formula for the percentage inhibition of cell proliferation: inhibition rate %=(mean value of DMSO control group−single concentration reading value of compound)/(mean value of DMSO control group−mean value of medium control group)×100. Then non-linear curve fittings for logarithmic concentration-inhibition rate were performed by GraphPad Prism 8, and the IC50 values of the compounds were obtained (Table 5).

[3] = system: KRAS G12D mutant human lung cancer cell A427; test: 3D cell proliferation inhibition assay, A427; conditions: A-427, 168 h, A427, 7 days, CTG
Excerpt: as §3, §4

[4] = molecular target: T1, KRAS-G12D; test: KRAS-G12D degradation assay (Western Blot), AsPc-1 cells; conditions: for DC50: 24 h; for Dmax: ASPC1, 24 h
Method: as §1, §2

Compound `CCc1c(F)ccc2cc(O)cc(-c3ncc4c(N5CC6CCC(C5)N6)nc(OCC5(CN6CCN(CC7CCC8(CC7)CCN(C(=O)c7ccc(C)c(N9CCC(=O)NC9=O)c7)CC8)CC6)CC5)nc4c3F)c12` [Example 37, 1-(5-(9-((4-((1-(((4-(3,8-diazabicyclo[3.2.1]octan-3-yl)-7-(8-ethyl-7-fluoro-3-hydroxynaphthalen-1-yl)-8-fluoropyrido[4,3-d]pyrimidin-2-yl)oxy)methyl)cyclopropyl)methyl)piperazin-1-yl)methyl)-3-azaspiro[5.5]undecane-3-carbonyl)-2-methylphenyl)dihydropyrimidine-2,4(1H,3H)-dione] has a DC50 ([1]; class symbols) of at most 50 nM, a Dmax ([1]; class symbols) of 80 to 100% and an IC50 ([2]; class symbols) of at most 50 nM. It also gave an IC50 ([3]; class symbols) of 100 to 500 nM.
In the case of `C#Cc1c(F)ccc2cc(O)cc(-c3ncc4c(N5CC6CCC(C5)N6)nc(OCC5(CN6CCN(CC7CCC8(CC7)CCN(C(=O)c7ccc(OC(F)(F)F)c(N9CCC(=O)NC9=O)c7)CC8)CC6)CC5)nc4c3F)c12` [Example 39, 1-(5-(9-((4-((1-(((4-(3,8-diazabicyclo[3.2.1]octan-3-yl)-7-(8-ethynyl-7-fluoro-3-hydroxynaphthalen-1-yl)-8-fluoropyrido[4,3-d]pyrimidin-2-yl)oxy)methyl)cyclopropyl)methyl)piperazin-1-yl)methyl)-3-azaspiro[5.5]undecane-3-carbonyl)-2-(trifluoromethoxy)phenyl)dihydropyrimidine-2,4(1H,3H)-dione], the DC50 ([1]; class symbols) is reported as at most 50 nM, the Dmax ([1]; class symbols) is reported as 50 to 80% and the IC50 ([2]; class symbols) is reported as at most 50 nM. The IC50 ([3]; class symbols) was 100 to 500 nM.
Compound `C#Cc1c(F)ccc2cc(O)cc(-c3ncc4c(N5CC6CCC(C5)N6)nc(SCC5(CN6CCN(CC7CCC8(CC7)CCN(C(=O)c7ccc(OC)c(N9CCC(=O)NC9=O)c7)CC8)CC6)CC5)nc4c3F)c12` [Example 54, 1-(5-(9-((4-((1-(((4-(3,8-diazabicyclo[3.2.1]octan-3-yl)-7-(8-ethynyl-7-fluoro-3-hydroxynaphthalen-1-yl)-8-fluoropyrido[4,3-d]pyrimidin-2-yl)thio)methyl)cyclopropyl)methyl)piperazin-1-yl)methyl)-3-azaspiro[5.5]undecane-3-carbonyl)-2-methoxyphenyl)dihydropyrimidine-2,4(1H,3H)-dione] has an IC50 ([2]; class symbols) of at most 50 nM and an IC50 ([3]; class symbols) of at most 50 nM.
Work on `C#Cc1c(F)ccc2cc(O)cc(-c3ncc4c(N5CC6CCC(C5)N6)nc(OCCN5CCN(CC6CCC7(CC6)CCN(C(=O)c6ccc(Cl)c(N8CCC(=O)NC8=O)c6)CC7)CC5)nc4c3F)c12` [Example 60, 1-(5-(9-((4-(2-((4-(3,8-diazabicyclo[3.2.1]octan-3-yl)-7-(8-ethynyl-7-fluoro-3-hydroxynaphthalen-1-yl)-8-fluoropyrido[4,3-d]pyrimidin-2-yl)oxy)ethyl)piperazin-1-yl)methyl)-3-azaspiro[5.5]undecane-3-carbonyl)-2-chlorophenyl)dihydropyrimidine-2,4(1H,3H)-dione] yielded an IC50 ([2]; class symbols) of at most 50 nM and an IC50 ([3]; class symbols) of 100 to 500 nM.
`C#Cc1c(F)ccc2cc(O)cc(-c3ncc4c(N5CC6CCC(C5)N6)nc(OCC5(CN6CCC(CCOCC7(OC)CCN(C(=O)c8ccc(Cl)c(N9CCC(=O)NC9=O)c8)CC7)CC6)CC5)nc4c3F)c12` [Example 67, 1-(5-(4-((2-(1-((1-(((4-(3,8-diazabicyclo[3.2.1]octan-3-yl)-7-(8-ethynyl-7-fluoro-3-hydroxynaphthalen-1-yl)-8-fluoropyrido[4,3-d]pyrimidin-2-yl)oxy)methyl)cyclopropyl)methyl)piperidin-4-yl)ethoxy)methyl)-4-methoxypiperidine-1-carbonyl)-2-chlorophenyl)dihydropyrimidine-2,4(1H,3H)-dione] showed an IC50 ([2]; numeric values) of 33.6 nM and an IC50 ([3]; numeric values) of 36.5 nM.
Compound `C#Cc1c(F)ccc2cc(O)cc(-c3ccc4c(N5CC6CCC(C5)N6)nc(OCC5(CN6CCN(CC7CCC8(CC7)CCN(C(=O)c7ccc(Cl)c(N9CCC(=O)NC9=O)c7)CC8)CC6)CC5)nc4c3F)c12` [Example 72, 1-(5-(9-((4-((1-(((4-(3,8-diazabicyclo[3.2.1]octan-3-yl)-7-(8-ethynyl-7-fluoro-3-hydroxynaphthalen-1-yl)-8-fluoroquinazolin-2-yl)oxy)methyl)cyclopropyl)methyl)piperazin-1-yl)methyl)-3-azaspiro[5.5]undecane-3-carbonyl)-2-chlorophenyl)dihydropyrimidine-2,4(1H,3H)-dione] has a DC50 ([1]; numeric values) of 101 nM, a Dmax ([1]; numeric values) of 82.6% and an IC50 ([2]; numeric values) of 8.64 nM.
`C#Cc1c(F)ccc2cc(O)cc(-c3ncc4c(N5CC6CCC(C5)N6)nc(OC[C@@H](CN5CCN(CC6CCC7(CC6)CCN(C(=O)c6ccc(C)c(N8CCC(=O)NC8=O)c6)CC7)CC5)OC)nc4c3F)c12` [Example 172, 1-(5-(9-((4-((R)-3-((4-(3,8-diazabicyclo[3.2.1]octan-3-yl)-7-(8-ethynyl-7-fluoro-3-hydroxynaphthalen-1-yl)-8-fluoropyrido[4,3-d]pyrimidin-2-yl)oxy)-2-methoxypropyl)piperazin-1-yl)methyl)-3-azaspiro[5.5]undecane-3-carbonyl)-2-methylphenyl)dihydropyrimidine-2,4(1H,3H)-dione] was tested, and the DC50 [4] was 113 nM and the Dmax [4] was 55%.
For `C#Cc1c(F)ccc2cc(O)cc(-c3ncc4c(N5CC6CCC(C5)N6)nc(OC[C@H](O)CN5CCN(CC6CCC7(CC6)CCN(C(=O)c6ccc(OC)c(N8CCC(=O)NC8=O)c6)CC7)CC5)nc4c3F)c12` [Example 191, 1-(5-(9-((4-((R)-3-((4-(3,8-diazabicyclo[3.2.1]octan-3-yl)-7-(8-ethynyl-7-fluoro-3-hydroxynaphthalen-1-yl)-8-fluoropyrido[4,3-d]pyrimidin-2-yl)oxy)-2-hydroxypropyl)piperazin-1-yl)methyl)-3-azaspiro[5.5]undecane-3-carbonyl)-2-methoxyphenyl)dihydropyrimidine-2,4(1H,3H)-dione], the DC50 [4] was 149 nM and the Dmax [4] was 81.9%.
